Experimental findings from US20230165969A1, “PHARMACEUTICAL COMPOSITION COMPRISING ANTIBODY DRUG CONJUGATE AND USE THEREOF” (priority 2020, published 2023) are described below.

This assay deals with trastuzumab (Herceptin)-resistant human breast cancer cell strain JIMT-1 xenograft tumor. Description: Drug efficacy on JIMT-1 tumor-bearing mice. Format: in vivo, nu/nu nude mice. The settings on record: 10 mg/kg, two intraperitoneal injections, observation for 34 days. How it is done:
The tumor volumes and body weights were measured twice a week and the results were recorded.

Take T-DM1: the tumor inhibition rate result was “no inhibition effect on tumors”.
